Measured values published in PubChem BioAssay AID1996.
≈ marks a conversion by molar mass, not a printed value.

Conditions: buffer; pH 7.4; 200.0 µM
`CC(NC(=O)CN1C(=O)c2ccccc2C1=O)c1ccccc1` (stereo not given) gave a solubility kinetic of 0.0084 mg/mL (≈ 27.2 µM).
With `CC(C)[C@H](NC(=O)C1CCCC1)c1nc2ccccc2[nH]1` the solubility kinetic was 0.0099 mg/mL (≈ 34.7 µM).
With `COc1ccc(C(=O)Nn2c(C)nc3ccccc3c2=O)cc1` the solubility kinetic was over 0.0464 mg/mL.
For `O=C(COC(=O)C1C2CC3OC(=O)C1C3C2)Nc1ccc(Cl)cc1` (stereo not given), the solubility kinetic was 0.0488 mg/mL (≈ 140 µM).
Work on `COCC(C)NC(=S)N1CCN(c2ccccc2Cl)CC1` (stereo not given) yielded a solubility kinetic of 0.0485 mg/mL (≈ 148 µM).
Compound `CCN1CCc2c(OCC(=O)Nc3cccc(C)c3)cccc2C1=O` has a solubility kinetic of over 0.0508 mg/mL.
Compound `Cc1ccc([N+](=O)[O-])cc1N=C1C(=O)Nc2ccccc21` has a solubility kinetic of 0.0374 mg/mL (≈ 133 µM).
`O=C(COC(=O)CNC(=O)c1ccc(Cl)c([N+](=O)[O-])c1)NC(=O)c1ccccc1` gave a solubility kinetic of 0.0529 mg/mL (≈ 126 µM).
In the case of `CSc1ncccc1C(=O)NCCc1ccccc1F`, the solubility kinetic is reported as over 0.0436 mg/mL.
Work on `Cc1[nH]c2ccccc2c1C(=O)C(=O)N1CC2CC(C1)c1cccc(=O)n1C2` (stereo not given) yielded a solubility kinetic of over 0.0563 mg/mL.
Work on `CCc1ccc(CCC(=O)Nc2ccc(Cl)cc2)o1` yielded a solubility kinetic of 0.0081 mg/mL (≈ 29.2 µM).
In the case of `COc1ccccc1CNC(=O)COC(=O)C1CC1`, the solubility kinetic is reported as over 0.0395 mg/mL.
In the case of `O=C1NC(=O)C(=Cc2ccc(Sc3ccccc3)o2)C(=O)N1`, the solubility kinetic is reported as 0.0405 mg/mL (≈ 129 µM).
`O=C1/C(=C/c2ccccn2)SC(=S)N1c1ccc(O)cc1` showed a solubility kinetic of 0.0005 mg/mL (≈ 1.59 µM).
In the case of `Cc1cc(C)c(-c2cc(C)nc3ncnn23)c(C)c1`, the solubility kinetic is reported as over 0.0378 mg/mL.
In the case of `FC(F)(F)c1cccc(Cc2noc(CN3C[C@@H]4CCC[C@H]3C4)n2)c1`, the solubility kinetic is reported as 0.0284 mg/mL (≈ 80.8 µM).
`CC(=O)Nc1ccc2sccc2c1` gave a solubility kinetic of 0.0279 mg/mL (≈ 146 µM).
Compound `O=C(NCc1ccc2c(c1)OCO2)NC12CC3CC(CC(C3)C1)C2` has a solubility kinetic of 0.0013 mg/mL (≈ 3.96 µM).
Compound `O=C(NC1CCCCCC1)c1cc2ccccc2oc1=O` has a solubility kinetic of 0.0034 mg/mL (≈ 11.9 µM).
`COc1ccc2c(c1)c(C(=O)O)c(C)n2-c1ccc(Cl)cc1` showed a solubility kinetic of 0.0152 mg/mL (≈ 48.1 µM).
`Cc1ccc(-n2c(-c3ccccc3)c[nH]c2=S)cc1` gave a solubility kinetic of 0.0006 mg/mL (≈ 2.25 µM).
Compound `Cc1ccccc1/C=C1\C(=O)Nc2ccc(F)cc21` has a solubility kinetic of 0.0009 mg/mL (≈ 3.55 µM).
In the case of `COC(=O)c1ccccc1NC(=O)CNC(=O)c1ccc(OC)cc1`, the solubility kinetic is reported as 0.045 mg/mL (≈ 131 µM).
`Cc1ccc(N(CN2C(=O)C3C4CCC(C4)C3C2=O)C(=O)c2ccco2)cc1` (stereo not given) gave a solubility kinetic of 0.0539 mg/mL (≈ 142 µM).
In the case of `O=C(NCC1CCCO1)c1ccc([N+](=O)[O-])o1` (stereo not given), the solubility kinetic is reported as over 0.036 mg/mL.
Work on `CN1CCC(N(C)CC(O)c2ccccc2)CC1.O=C(O)C(=O)O` (stereo not given) yielded a solubility kinetic of over 0.0508 mg/mL.
Compound `CC(=O)c1sc(NC(C)c2ccccc2)nc1C` (stereo not given) has a solubility kinetic of 0.0304 mg/mL (≈ 117 µM).
Work on `c1ccc(Oc2nc(-c3ccccn3)nc3ccccc23)cc1` yielded a solubility kinetic of 0.0431 mg/mL (≈ 144 µM).
`CCCCCCCn1c(NC(=O)CC)nc2ccccc21` showed a solubility kinetic of 0.0138 mg/mL (≈ 48 µM).
For `O=C(Nc1cc(C(F)(F)F)ccc1N1CCOCC1)c1cnccn1`, the solubility kinetic was 0.0011 mg/mL (≈ 3.12 µM).
For `O=C(c1ccc2ccccc2c1)N1CCCCC1`, the solubility kinetic was over 0.0359 mg/mL.
For `CC1CN(Cc2cc(=O)oc3cc(O)ccc23)CC(C)O1` (stereo not given), the solubility kinetic was over 0.0434 mg/mL.
For `CCOc1ccc(OCC(=O)Nc2ccc(S(N)(=O)=O)cc2)cc1`, the solubility kinetic was 0.0071 mg/mL (≈ 20.3 µM).
Compound `COc1ccc(N2C(=O)c3cccc4cccc(c34)C2=O)cc1` has a solubility kinetic of under 0.0006 mg/mL.
Compound `Cc1ccc(S(=O)(=O)NC2CCCC2)cc1C(N)=O` has a solubility kinetic of over 0.0424 mg/mL.
Work on `CC(=O)Nc1ccccc1Oc1ccccc1` yielded a solubility kinetic of over 0.0341 mg/mL.
`CCCN1CCOC(CC(=O)Nc2ccc([N+](=O)[O-])cc2)C1=O` (stereo not given) showed a solubility kinetic of 0.038 mg/mL (≈ 118 µM).
With `Fc1cccc(Nc2ncnc3sccc23)c1` the solubility kinetic was 0.0057 mg/mL (≈ 23.2 µM).
`CSc1ccc(C2NC(=O)c3ccccc3N2)cc1` (stereo not given) showed a solubility kinetic of 0.0026 mg/mL (≈ 9.62 µM).
Compound `Cc1cccc(C)c1Nc1nnc(SCC(=O)NCCCN2CCCC2=O)s1` has a solubility kinetic of over 0.0629 mg/mL.
For `COC(=O)c1ccc(NC(=O)c2cc[n+]([O-])cc2)cc1`, the solubility kinetic was over 0.0408 mg/mL.
With `CCCOC(=O)C1=C(C)NC(=O)NC1c1ccc(Br)s1` (stereo not given) the solubility kinetic was 0.0031 mg/mL (≈ 8.63 µM).
Work on `Nc1ccc(S(=O)(=O)[O-])c[nH+]1` yielded a solubility kinetic of over 0.0261 mg/mL.
With `O=C(O/N=C1/CCCc2occc21)c1ccc(Cl)cc1Cl` the solubility kinetic was under 0.0007 mg/mL.
For `CCOC(=O)c1c(C)nsc1NC(=O)c1ccco1`, the solubility kinetic was 0.0016 mg/mL (≈ 5.71 µM).
For `CCCCN(C)CCNC(=O)C(=O)c1c(C)[nH]c2ccccc12`, the solubility kinetic was over 0.0473 mg/mL.
With `C/C=C/n1ccnc1CC(O)(c1ccccc1)c1ccc(C)cc1` (stereo not given) the solubility kinetic was 0.0033 mg/mL (≈ 10.4 µM).
`COc1ccc2c(c1)C(=C(C#N)C#N)C(=O)N2CCc1ccccc1` showed a solubility kinetic of 0.0034 mg/mL (≈ 10.3 µM).
`CC1CCCC(C)N1C(=O)COC(=O)CCC1CCCC1` (stereo not given) showed a solubility kinetic of 0.0301 mg/mL (≈ 102 µM).
Work on `CCOc1ccc2ccccc2c1C1NC(=O)N(C)C(C)=C1C(=O)OCCOC` (stereo not given) yielded a solubility kinetic of 0.0019 mg/mL (≈ 4.77 µM).
In the case of `O=C(NC(=S)N1CCCC1)c1ccc(Cl)cc1`, the solubility kinetic is reported as 0.0354 mg/mL (≈ 132 µM).
Compound `CC(C)C1N(C(N)=S)N=CC1(C)C` (stereo not given) has a solubility kinetic of over 0.0299 mg/mL.
`Cc1ccccc1OC(C)C(=O)Nc1ccc2c(c1)OCCO2` (stereo not given) gave a solubility kinetic of 0.0408 mg/mL (≈ 130 µM).
Work on `O=C(NCc1ccccc1Cl)NCc1ccccc1Cl` yielded a solubility kinetic of 0.0011 mg/mL (≈ 3.56 µM).
`Cc1ccccc1CN1CCN(CC2CC2)CC1CCO` (stereo not given) gave a solubility kinetic of over 0.0433 mg/mL.
For `CC1Cc2ccccc2N1S(=O)(=O)c1cccc(C(=O)NCc2ccco2)c1` (stereo not given), the solubility kinetic was 0.0147 mg/mL (≈ 37.1 µM).
Compound `CCOC(=O)c1cnc(-c2ccc(C(F)(F)F)cn2)[nH]c1=O` has a solubility kinetic of 0.0468 mg/mL (≈ 149 µM).
For `Cc1cc(OC(=O)c2cccc(F)c2)c([N+](=O)[O-])c(=O)[nH]1`, the solubility kinetic was over 0.0438 mg/mL.
Work on `CC(C)(ONC(=O)Nc1ccccc1Cl)C(=O)O` yielded a solubility kinetic of over 0.0409 mg/mL.
For `O=C(O)C1=NN(c2c(F)c(F)cc(F)c2F)C(=O)CC1`, the solubility kinetic was over 0.0435 mg/mL.
`CCC1C(C#N)=C(SCC(N)=O)NC2=C1C(=O)CC(C)(C)C2` (stereo not given) showed a solubility kinetic of 0.0469 mg/mL (≈ 147 µM).
For `CCOC(=O)c1c(C)[nH]c(C(=O)COC(=O)c2ccc([N+](=O)[O-])o2)c1C`, the solubility kinetic was 0.0044 mg/mL (≈ 12.1 µM).
With `Cc1ccc(S(=O)(=O)N2CCc3ccccc3C2)cc1C` the solubility kinetic was under 0.0006 mg/mL.
Work on `CNC(=O)c1cc2c(s1)-c1ccccc1CC2` yielded a solubility kinetic of 0.0052 mg/mL (≈ 21.4 µM).
With `O=C(Cc1ncc(C(F)(F)F)cc1Cl)NC1CC1` the solubility kinetic was over 0.0418 mg/mL.
Compound `CCN(CC)c1ccc2c(Nc3ccccc3)c(C=O)c(=O)oc2c1` has a solubility kinetic of under 0.0004 mg/mL.
`CCOC(=O)c1ccc(N=Cc2c(O)c3ccccc3oc2=O)cc1` gave a solubility kinetic of 0.0047 mg/mL (≈ 13.9 µM).
Work on `CCOc1ccc(-n2c([O-])cc(=O)[nH]c2=O)cc1.[NH4+]` yielded a solubility kinetic of 0.0352 mg/mL.
Compound `CC1CN(C(=S)Nc2ccc(Br)cc2)CC(C)O1` (stereo not given) has a solubility kinetic of 0.0485 mg/mL (≈ 147 µM).
Work on `COC(=O)c1ccc(/C=C/c2nc3ccccc3c(=O)[nH]2)cc1` yielded a solubility kinetic of 0.0037 mg/mL (≈ 12.1 µM).
`O=C(c1ccccn1)N1CCN(S(=O)(=O)c2ccccc2)CC1` showed a solubility kinetic of over 0.0497 mg/mL.
With `COC(=O)c1c(C)[nH]c(C(=O)OCc2csc(CC(=O)Nc3ccccc3C)n2)c1C` the solubility kinetic was 0.0074 mg/mL (≈ 16.8 µM).
Work on `Cc1cc(Cl)ccc1NC(=O)C1CCN(S(C)(=O)=O)CC1` yielded a solubility kinetic of 0.0108 mg/mL (≈ 32.6 µM).
In the case of `O=C(O)Cn1cc(C(=O)C(F)(F)F)c2ccccc21`, the solubility kinetic is reported as over 0.0407 mg/mL.
`CCC(C)c1ccccc1OCCCN(C)Cc1ccccc1` (stereo not given) showed a solubility kinetic of 0.0041 mg/mL (≈ 13.2 µM).
Compound `C=CCNC(=O)c1ccc(N(Cc2ccccc2)S(C)(=O)=O)cc1` has a solubility kinetic of over 0.0517 mg/mL.
`COc1ccc(CNC(=O)COC(=O)C2CC2C)cc1OC` (stereo not given) gave a solubility kinetic of over 0.0461 mg/mL.
In the case of `O=C(CSc1ccccn1)N1CCNC1=O`, the solubility kinetic is reported as over 0.0356 mg/mL.
`Cc1nc2ccccc2cc1C(=O)NCc1ccc(F)cc1` showed a solubility kinetic of 0.0206 mg/mL (≈ 70 µM).
Work on `CN1C(=O)c2cccc3c(N(C)C)ccc(c23)C1=O` yielded a solubility kinetic of 0.0059 mg/mL (≈ 23.2 µM).
For `O=C(COC(=O)C1CCCC1)Nc1ncc(Cl)cc1Cl`, the solubility kinetic was over 0.0476 mg/mL.
Work on `CC(C)N(C(=O)c1ccc(-c2ccccc2F)cc1)C(C)C` yielded a solubility kinetic of 0.0234 mg/mL (≈ 78.2 µM).
`CC1(C)CC(NC(=O)c2ccc(Cl)c(Cl)c2)CC(C)(C)N1` showed a solubility kinetic of over 0.0494 mg/mL.
`CC12CCC(C(=O)Nc3ccncc3)(CC1O)C2(C)C` (stereo not given) showed a solubility kinetic of over 0.0412 mg/mL.
For `Cc1cc(N2CCN(C(=O)c3cccs3)CC2)c(F)cc1[N+](=O)[O-]`, the solubility kinetic was 0.0015 mg/mL (≈ 4.29 µM).
